Experimental findings from US20100303758A1, “Novel Glucocorticoid Receptor Agonists” (priority 2009, published 2010) are described below.

Experiment [1] is described as follows: Inhibition of TNF-α release from LPS stimulated isolated human PBMC. The settings on record: Homo sapiens, PBMC, read-out: IC50 (nM) for inhibition of TNF-α release. The format is cell-based. As for the experimental part: The anti-inflammatory activity of the compounds against human leukocytes in vitro was also evaluated by determining inhibition of tumour necrosis factor-α (TNF-α) release from lipopolysaccharide (LPS) stimulated isolated human peripheral mononuclear cells (PBMC).
Peripheral venous blood from healthy, non-medicated donors was collected using ethylenediaminetetraacetic acid (EDTA) as the anti-coagulant. For PBMC preparation, samples of blood were diluted 1:1 with sterile phosphate buffered saline and then separated using ACCUSPIN™ System-Histopaque®-1077 tubes (Sigma-Aldrich, St Louis, Mo.), centrifuged at 400 g for 35 minutes. Buffy coat cells were removed into PBS, centrifuged at 200 g for 10 minutes and re-suspended in PBMC assay buffer (Hanks Balanced Salt Solution, 0.28% [w/v] 4-[2-hydroxyethyl]-1-piperazineethanesulfonic acid [HEPES], 0.01% [w/v] low-endotoxin bovine serum albumin [BSA]. A differential white cell count was performed and PBMC's diluted to 1×10^6 lymphocytes per ml in PBMC assay buffer.
Test compounds were dissolved in DMSO and diluted in PBMC assay buffer (final DMSO concentration 1%) to cover an appropriate concentration range, e.g 0.001 nM to 10000 nM. Samples of test compound solution or vehicle (20 μl) were added into 96-well tissue culture treated plates (Corning) and PBMC (160 μl) added to each well. The assay mixtures were incubated at 37° C. for 1 h in a humidified incubator containing an atmosphere of air supplemented with 5% CO2 before adding LPS (20 μl of 100 ng/ml for PBMC). Plates were returned to the incubator for a further 18 hours, and then centrifuged before recovery of samples of supernatant. TNF-α in the samples was determined using an enzyme-linked immunosorbent assay (ELISA) (Invitrogen kit no CHC-1754; Invitrogen Carlsbad, Calif.) and following the manufacturers instructions. Dose response curves were constructed from which IC50 values were calculated.

Another experiment addresses T1, human GR (Homo sapiens, UniProt P04150).
T1 construct: SW1353 naturally expresses human GR; endogenous in cells; host or cells: human chondrosarcoma cell-line SW1353 stably transfected with an MMTV-luciferase reporter construct
T1 sequence (P04150 1-777): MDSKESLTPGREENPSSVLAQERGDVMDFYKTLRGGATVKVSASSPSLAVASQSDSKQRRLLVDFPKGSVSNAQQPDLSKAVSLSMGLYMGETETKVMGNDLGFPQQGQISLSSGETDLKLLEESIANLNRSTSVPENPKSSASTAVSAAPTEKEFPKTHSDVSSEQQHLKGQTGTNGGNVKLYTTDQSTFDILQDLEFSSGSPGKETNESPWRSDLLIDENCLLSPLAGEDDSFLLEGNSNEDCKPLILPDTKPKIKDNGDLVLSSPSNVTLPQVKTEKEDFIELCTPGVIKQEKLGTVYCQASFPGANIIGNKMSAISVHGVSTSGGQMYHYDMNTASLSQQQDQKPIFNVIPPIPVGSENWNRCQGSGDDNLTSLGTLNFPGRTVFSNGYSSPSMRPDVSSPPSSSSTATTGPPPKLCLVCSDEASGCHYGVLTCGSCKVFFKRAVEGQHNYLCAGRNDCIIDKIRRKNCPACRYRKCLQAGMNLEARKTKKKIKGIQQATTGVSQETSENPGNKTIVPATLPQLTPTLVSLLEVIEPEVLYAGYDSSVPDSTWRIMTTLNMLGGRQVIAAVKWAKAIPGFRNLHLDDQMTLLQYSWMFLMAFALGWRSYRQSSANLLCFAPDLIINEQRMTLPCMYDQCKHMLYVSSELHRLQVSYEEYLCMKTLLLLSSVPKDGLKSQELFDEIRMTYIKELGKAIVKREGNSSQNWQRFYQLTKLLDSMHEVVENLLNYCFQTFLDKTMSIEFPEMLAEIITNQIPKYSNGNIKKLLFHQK
Kind of experiment: GR agonist potency, MMTV-luciferase reporter in SW1353 cells. The class given is cell-based. The settings on record: human chondrosarcoma cell-line SW1353 stably transfected with MMTV-luciferase reporter; approx. 18 hours; data as percentage of 1 μM dexamethasone positive control. As for the experimental part: Glucococorticoid receptor (GR) agonist potency was determined in the human chondrosarcoma cell-line SW1353 stably transfected with an MMTV-luciferase reporter construct. SW1353 naturally expresses human GR, which on binding a glucocorticoid agonist activates glucocorticoid response elements within the MMTV promoter, driving expression of the luciferase gene.
Frozen SW1353 cells were revived in DMEM medium, without sodium pyruvate or phenol red, supplemented with 2 mM L-glutamine, 1 μg/ml insulin, 2 mg/ml lactalbumin hydrosylate and 0.5 μg/ml ascorbate. Cells were seeded at approximately 5000 cells/well (35 μl/well) in 384-well clear bottom, tissue culture treated plates. Steroid dose-response dilutions were prepared in steroid diluent (PBS containing 2.5% (v/v) DMSO and 0.05% (v/v) pluronic detergent) and 5 μl added to each well. The volume was made up to 50 μl per well with steroid diluent. Positive control wells contained 1 μM dexamethasone. Plates were incubated for approximately 18 hours at 37° C. in an air/5% CO2 atmosphere in a humidified incubator before Britelite reagent (10 μl; Perkin-Elmer) was added to each well. Each plate was incubated for 2 minutes in the dark and luminescence quantified using a LJL Biosystems Analyst luminometer. Data for test compounds (expressed as percentage of the dexamethasone positive control) were used to construct dose response curves from which EC50 values were estimated.

In general, IC50 refers to the concentration needed to halve the response being measured. As a reminder, the EC50 is the concentration at which the effect is half-maximal. High values mean a need for much substance, low ones an effect from little substance.

`CSc1cccc(Sc2ccc(C(=O)O[C@]3(C(=O)OCC#N)CC[C@H]4[C@@H]5CCC6=CC(=O)C=C[C@]6(C)[C@@]5(F)[C@@H](O)C[C@@]43C)cc2)c1` [Example 10, cyanomethyl (11beta,17alpha)-9-fluoro-11-hydroxy-17-[(4-{[3-(methylthio)-phenyl]thio}benzoyl)oxy]-3-oxoandrosta-1,4-diene-17-carboxylate]: the IC50 in experiment [1] came to 0.826 nM. The EC50 at human GR is 62.1 nM.

On to `C[C@]12C=CC(=O)C=C1CC[C@H]1[C@@H]3CC[C@](OC(=O)c4ccc(Oc5ccccc5)cc4)(C(=O)OCC#N)[C@@]3(C)C[C@H](O)[C@@]12F` [Example 14, cyanomethyl(11beta,17alpha)-9-fluoro-11-hydroxy-3-oxo-17-[(4-phenoxybenzoyl)oxy]androsta-1,4-diene-17-carboxylate], for which the IC50 in experiment [1] came out at 0.234 nM. Besides, the EC50 at human GR turned out to be 23.9 nM.

Turning to `CSc1ccc(Sc2ccc(C(=O)O[C@]3(C(=O)OCC#N)[C@H](C)C[C@H]4[C@@H]5C[C@H](F)C6=CC(=O)C=C[C@]6(C)[C@@]5(F)[C@@H](O)C[C@@]43C)cc2)cc1` [Example 46, Cyanomethyl (6alpha,11beta,16alpha,17alpha)-6,9-difluoro-11-hydroxy-16-methyl-17-[(4-{[4-(methylthio)phenyl]thio}benzoyl)oxy]-3-oxoandrosta-1,4-diene-17-carboxylate], the IC50 in experiment [1] came to 0.372 nM. The response on human GR was half-maximal at 44.3 nM (EC50).

Regarding `C[C@]12C=CC(=O)C=C1CC[C@H]1[C@@H]3CC[C@](OC(=O)c4ccc(Sc5ccccc5)cc4)(C(=O)SCF)[C@@]3(C)C[C@H](O)[C@@]12F` [Example 24, (11beta,17alpha)-9-fluoro-17-{[(fluoromethyl)thio]carbonyl}-11-hydroxy-3-oxoandrosta-1,4-dien-17-yl 4-(phenylthio)benzoate], the IC50 in experiment [1] came to 0.117 nM. Further, the EC50 at human GR stood at 25.8 nM.

In the case of `C[C@]12C=CC(=O)C=C1CC[C@H]1[C@@H]3CC[C@](OC(=O)c4ccc(Sc5ccccc5)cc4)(C(=O)SCCl)[C@@]3(C)C[C@H](O)[C@@]12F` [Example 30, (11beta,17alpha)-17-{[(chloromethyl)thio]carbonyl}-9-fluoro-11-hydroxy-3-oxoandrosta-1,4-dien-17-yl 4-(phenylthio)benzoate], in experiment [1], the IC50 was found to be 0.256 nM. Besides, a half-maximal response on human GR (EC50) required 20.6 nM.

For `C[C@]12C=CC(=O)C=C1CC[C@H]1[C@@H]3CC[C@](OC(=O)c4ccc(Sc5ccccc5)c(O)c4)(C(=O)OCC#N)[C@@]3(C)C[C@H](O)[C@@]12F` [Example 19, cyanomethyl (11beta,17alpha)-9-fluoro-11-hydroxy-17-{[3-hydroxy-4-(phenylthio)benzoyl]oxy}-3-oxoandrosta-1,4-diene-17-carboxylate], the half-maximal inhibitory concentration (IC50) in experiment [1] was determined as 0.3 nM. Besides, the concentration for a half-maximal effect (EC50) at human GR is 44.8 nM.

With `C[C@]12C=CC(=O)C=C1[C@@H](F)C[C@H]1[C@@H]3CC[C@](OC(=O)c4ccc(CSc5ccc(O)cc5)cc4)(C(=O)OCC#N)[C@@]3(C)C[C@H](O)[C@@]12F` [Example 11, cyanomethyl(6alpha,11beta,17alpha)-6,9-difluoro-11-hydroxy-17-[(4-{[(4-hydroxyphenyl)thio]methyl}benzoyl)oxy]-3-oxoandrosta-1,4-diene-17-carboxylate], the IC50 in experiment [1] stood at 0.735 nM. The same compound registered an EC50 on human GR of 30.2 nM.

Regarding `C[C@]12C=CC(=O)C=C1CC[C@H]1[C@@H]3CC[C@](OC(=O)c4ccc(Oc5ccccc5)cc4)(C(=O)SCF)[C@@]3(C)C[C@H](O)[C@@]12F` [Example 25, (11beta, 17alpha)-9-fluoro-17-{[(fluoromethyl)thio]carbonyl}-11-hydroxy-3-oxoandrosta-1,4-dien-17-yl 4-phenoxybenzoate], in experiment [1], the IC50 came out at 0.026 nM. Also, the EC50 at human GR was determined as 19.8 nM.

Turning to `C[C@]12C=CC(=O)C=C1CC[C@H]1[C@@H]3CC[C@](OC(=O)c4ccc(Oc5ccccc5)c(O)c4)(C(=O)OCC#N)[C@@]3(C)C[C@H](O)[C@@]12F` [Example 33, cyanomethyl(11beta,17alpha)-9-fluoro-11-hydroxy-17-[(3-hydroxy-4-phenoxybenzoyl)oxy]-3-oxoandrosta-1,4-diene-17-carboxylate], in experiment [1], the IC50 was 0.212 nM. Moreover, a half-maximal response on human GR (EC50) required 68.3 nM.

For the compound `CSc1cccc(Sc2ccc(C(=O)O[C@]3(C(=O)OCC#N)[C@H](C)C[C@H]4[C@@H]5C[C@H](F)C6=CC(=O)C=C[C@]6(C)[C@@]5(F)[C@@H](O)C[C@@]43C)cc2)c1` [Example 49, Cyanomethyl (6alpha,11beta,16alpha, 17alpha)-6,9-difluoro-11-hydroxy-16-methyl-17-[(4-{[3-(methylthio)phenyl]thio}benzoyl)oxy]-3-oxoandrosta-1,4-diene-17-carboxylate], the IC50 in experiment [1] came out at 0.738 nM. Besides, the midpoint of the response on human GR, the EC50, lay at 90.8 nM.

Regarding `C[C@]12C=CC(=O)C=C1CC[C@H]1[C@@H]3CC[C@](OC(=O)c4ccc(Sc5ccccc5)cc4)(C(=O)SCC#N)[C@@]3(C)C[C@H](O)[C@@]12F` [Example 28, (11beta,17alpha)-17-{[(cyanomethyl)thio]carbonyl}-9-fluoro-11-hydroxy-3-oxoandrosta-1,4-dien-17-yl 4-(phenylthio)benzoate], the IC50 in experiment [1] worked out at 0.231 nM. In addition, a half-maximal effect on human GR (EC50) was put at 37.3 nM.

For `C[C@@H]1C[C@H]2[C@@H]3C[C@H](F)C4=CC(=O)C=C[C@]4(C)[C@@]3(F)[C@@H](O)C[C@]2(C)[C@@]1(OC(=O)c1ccc(Oc2ccc(Cl)c(O)c2)cc1)C(=O)OCF` [Example 41, Fluoromethyl (6alpha,11beta,16alpha,17alpha)-17-{[4-(4-chloro-3-hydroxyphenoxy)benzoyl]oxy}-6,9-difluoro-11-hydroxy-16-methyl-3-oxoandrosta-1,4-diene-17-carboxylate], the IC50 in experiment [1] is 0.032 nM. Besides, at human GR, a half-maximal response (EC50) required 7.73 nM.

Consider `CSc1cccc(Oc2ccc(C(=O)O[C@]3(C(=O)OCC#N)[C@H](C)C[C@H]4[C@@H]5C[C@H](F)C6=CC(=O)C=C[C@]6(C)[C@@]5(F)[C@@H](O)C[C@@]43C)cc2)c1` [Example 47, Cyanomethyl (6alpha,11beta,16alpha, 17alpha)-6,9-difluoro-11-hydroxy-16-methyl-17-({4-[3-(methylthio)phenoxy]benzoyl}oxy)-3-oxoandrosta-1,4-diene-17-carboxylate], for which the IC50 in experiment [1] stood at 0.731 nM. The same compound came in with an EC50 on human GR of 25.2 nM.
